The assay concerns the target T1, CB1 receptor (Homo sapiens, UniProt P21554).
T1 construct: expressed in transfected cells
Nature of the assay: [35S]-GTPγS binding assay, inhibition of CP55940-stimulated activity in membranes from CB1-transfected cells. Type of assay: biochemical. The note with it: membranes from cells stably transfected with the CB1 gene; EC80 concentration of agonist CP55940; 30° C., 45 min; read-out: IC50 (concentration required to give half maximal inhibition of GTPγS binding). An excerpt:
Compounds of the present invention are active against the receptor product of the CB1 gene. The compounds of the present invention are active at the CB 1 receptor (IC50<1 micromolar). Most preferred compounds have IC50<200 nanomolar. The affinity of the compounds of the invention for central cannabinoid receptors is demonstrable in methods described in Devane et al, Molecular Pharmacology, 1988, 34,605 or those described in WO 01/70700 or EP 656354. Alternatively the assay may be performed as follows.
10 μg of membranes prepared from cells stably transfected with the CB1 gene were suspended in 200 μl of 100 mM NaCl, 5 mM MgCl2, 1 mM EDTA, 50 mM HEPES (pH 7.4), 1 mM DTT, 0.1% BSA and 100 μM GDP. To this was added an EC80 concentration of agonist CP55940), the required concentration of test compound and 0.1 μCi [^35S]-GTPγS. The reaction was allowed to proceed at 30° C. for 45 nun. Samples were then transferred on to GF/B filters using a cell harvester and washed with wash buffer (50 mM Tris (pH 7.4), 5 mM MgCl2, 50 mM NaCl). Filters were then covered with scintilant and counted for the amount of [35]-GTPγS retained by the filter.
Activity is measured in the absence of all ligands (minimum activity) or in the presence of an EC80 concentration of CP55940 (maximum activity). These activities are set as 0% and 100% activity respectively. At various concentrations of novel ligand, activity is calculated as a percentage of the maximum activity and plotted. The data are fitted using the equation y=A+((B−A)/1+((C/x)UD)) and the IC50 value determined as the concentration required to give half maximal inhibition of GTPγS binding under the conditions used.
T1 sequence (P21554 whole entry): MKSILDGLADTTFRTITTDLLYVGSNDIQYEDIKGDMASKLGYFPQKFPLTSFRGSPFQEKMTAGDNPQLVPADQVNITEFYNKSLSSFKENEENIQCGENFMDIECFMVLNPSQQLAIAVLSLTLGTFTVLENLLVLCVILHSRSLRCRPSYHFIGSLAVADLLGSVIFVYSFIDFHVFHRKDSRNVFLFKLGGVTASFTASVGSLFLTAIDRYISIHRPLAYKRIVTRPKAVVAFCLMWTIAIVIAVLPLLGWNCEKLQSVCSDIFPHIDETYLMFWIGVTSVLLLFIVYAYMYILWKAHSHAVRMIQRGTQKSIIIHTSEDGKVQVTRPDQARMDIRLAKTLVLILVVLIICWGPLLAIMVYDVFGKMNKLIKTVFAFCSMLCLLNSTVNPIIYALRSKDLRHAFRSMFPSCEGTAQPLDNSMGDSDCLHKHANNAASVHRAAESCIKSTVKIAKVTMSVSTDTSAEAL
Take `CC(C)(C)NNC(=O)c1nc(-c2ccc(Cl)cc2)c(-c2ccc(Cl)cc2)nc1C(=O)OC(C)(C)C` [Example 9]: the IC50 is 1.8 nM.

With `Cc1ccc(-c2nc(Cn3cnnn3)c(C(=O)NN3CCCCC3)nc2-c2ccc(C)cc2)cc1` [Example 35, 5,6-Bis(4-methylphenyl)-N-piperidin-1-yl-3-(1H-tetrazol-1-ylmethyl)pyrazine-2-carboxamide], the IC50 came out at 1.4 nM. With `O=C(NN1CCCCC1)c1nc(-c2ccc(Cl)cc2)c(-c2ccc(Cl)cc2)nc1CN1CCOCC1` [Example 27, 5,6-bis(4-chlorophenyl)-3-(morpholin-4-ylmethyl)-N-piperidin-1-ylpyrazine-2-carboxamide] the figure was 13.5 nM.

Source of the values: patent US20070093484A1, “3-Substituted 5,6-diaryl-pyrazine-2-carboxamide and -2-sulfonamide derivatives as cb1 modulators” (ASTRAZENECA AB, priority 2003, published 2007).
